{"source": "paper PMC4605401", "about": "(Journal of pharmaceutical and biomedical analysis, 2009)", "key": {"[1]": {"target": "T1, histamine 1 receptor (H1R) (Homo sapiens, UniProt P35367)", "T1 sequence (P35367 whole entry)": "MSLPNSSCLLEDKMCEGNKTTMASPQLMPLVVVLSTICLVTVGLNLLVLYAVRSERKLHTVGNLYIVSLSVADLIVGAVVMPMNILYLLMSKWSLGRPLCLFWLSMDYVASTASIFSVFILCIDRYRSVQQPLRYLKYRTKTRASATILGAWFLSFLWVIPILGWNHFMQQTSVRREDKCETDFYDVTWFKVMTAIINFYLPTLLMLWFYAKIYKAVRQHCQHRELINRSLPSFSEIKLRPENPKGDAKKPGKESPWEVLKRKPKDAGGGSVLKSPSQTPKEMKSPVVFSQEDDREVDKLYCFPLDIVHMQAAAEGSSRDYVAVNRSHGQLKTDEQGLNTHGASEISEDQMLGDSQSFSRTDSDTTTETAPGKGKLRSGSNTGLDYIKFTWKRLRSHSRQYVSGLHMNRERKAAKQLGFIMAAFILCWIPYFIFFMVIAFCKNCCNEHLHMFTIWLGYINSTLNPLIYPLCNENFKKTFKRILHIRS", "format": "binding", "conditions": "histamine subtype selectivity; data not shown"}, "[2]": {"target": "T1, histamine 1 receptor (H1R)", "conditions": "cellular membrane binding studies; data not shown"}, "[3]": {"target": "T1, histamine 1 receptor (H1R)", "test": "Frontal affinity chromatography, competitive displacement on CMAC", "format": "binding", "conditions": "CMAC(1321N1P2Y1); marker 50 pM [3H]-mepyramine; 10 μM 2-MeSADP in mobile phase"}, "P2Y1 receptor [4]": {"test_system": "P2Y1 receptor", "test": "Frontal affinity chromatography on CMAC", "format": "binding, human"}, "P2Y1 receptor [5]": {"target": "P2Y1 receptor (Homo sapiens, UniProt P47900)", "sequence (P47900 whole entry)": "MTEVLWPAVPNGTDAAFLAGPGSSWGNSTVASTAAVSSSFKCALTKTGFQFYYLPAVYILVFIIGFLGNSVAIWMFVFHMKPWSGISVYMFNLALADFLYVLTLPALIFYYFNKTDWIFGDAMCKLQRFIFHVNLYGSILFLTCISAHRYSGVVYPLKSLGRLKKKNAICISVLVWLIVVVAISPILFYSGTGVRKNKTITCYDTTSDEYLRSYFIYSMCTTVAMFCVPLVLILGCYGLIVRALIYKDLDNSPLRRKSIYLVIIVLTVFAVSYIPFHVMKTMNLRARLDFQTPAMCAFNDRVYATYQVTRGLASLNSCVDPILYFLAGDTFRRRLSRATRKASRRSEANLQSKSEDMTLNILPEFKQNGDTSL", "test": "Frontal affinity chromatography, competitive displacement on CMAC", "format": "binding", "conditions": "CMAC(1321N1P2Y1); marker 1 nM [3H]-2-MeSADP; 1 μM mepyramine in mobile phase"}}}
{"molecule": "4-methylhistamine", "values": [{"measurement": "specific retention on CMAC(1321N1) column", "setting": "[1]", "value": "No specific retention"}, {"measurement": "specific binding to 1321N1 cellular membranes", "setting": "[2]", "value": "did not specifically bind"}]}
{"molecule": "CSc1nc(N)c2ncn([C@@H]3O[C@H](COP(=O)(O)OP(=O)(O)O)[C@@H](O)[C@H]3O)c2n1", "note": "[2-MeSADP]", "values": [{"measurement": "effect on the breakthrough volume of mepyramine", "setting": "[3]", "value": "no effect"}, {"measurement": "CMAC(1321N1) Kd", "setting": "P2Y1 receptor [4]; P2Y1, non-transfected 1321N1 membranes", "value": "No binding"}, {"measurement": "specific retention on CMAC(1321N1) column", "setting": "P2Y1 receptor [4]; [3H]-2-MeSADP added to the mobile phase", "value": "no specific retention"}]}
{"molecule": "COc1ccc(CN(CCN(C)C)c2ccccn2)cc1", "note": "[Mepyramine, mepyramine]", "values": [{"measurement": "effect on the breakthrough volume of 2-MeSADP", "setting": "P2Y1 receptor [5]", "value": "no effect"}]}
